Reference: patent US8247460B2, “Method of treatment for muscular dystrophy” (priority 2006, dated 2012)
Like-named read-outs stand apart in the source and are kept apart here.

Legend:
[1] = system: alpha-SG-null C57BL/6 mouse; assay type: in vivo
Description: FIG. 1: alpha-sarcoglycan (SG)-null C57BL/6 mice were treated for 30 days with the indicated drugs, or combinations of drugs incorporated into the diet as described in the Methods. Serum creatin kinase (CK) concentrations were measured from mouse blood samples obtained by tail vein withdrawal using the indirect colorimetric assay (Roche Diagnostics), following standard procedures.
(§1) The alpha-SG-null C57BL/6 mouse, one of the most severe models of muscular dystrophy was used. In some experiments wild type (wt) C57BL/6 mouse were used as internal further control.
(§2) In the in vivo experiments the drugs were administered daily in the diet to three months old animals for 30 days. The dose of aspirin was 80 mg/kg, the dose of ISMN was 35 mg/kg and that of ISDN was 10 mg/kg, while the dose of ibuprofen was 15 mg/kg. Prednisolone was used as reference drug at the dose of 2 mg/kg. When combinations of drugs were used, the drugs were both incorporated in the same diet. Control animals received the same diet without any drug incorporation.
Quantitative determination of creatine kinase activity in serum of control and drug treated-animals was measured using creatine kinase reagent (Randox, CK110), according to the manufacturer's instructions. Blood was collected from tail vein and serum obtained after centrifugation at 13000 rpm for 10 minutes was stored at −80° C. before measurements.

[2] = system: alpha-SG-null C57BL/6 mouse; test: Free wheel running (voluntary running wheel activity); assay type: in vivo; details: alpha-SG-null mice, drugs daily in the diet, 30 days of treatment, n = 4
Description: FIG. 2: alpha-SG-null C57BL/6 mice were treated for 30 days with the indicated drugs, or combinations of drugs incorporated into the diet as described in the Methods. Locomotor performance was measured through the Running Wheel Activity, to this end mice were housed individually in cages equipped with a Trixie running wheel. Each wheel revolution was registered through a magnetic switch, which was connected to a counter. The number of revolutions was recorded daily for 6 days. […] The results of 9 experiments ±S.E.M of Running Wheel Activity measured in wild type (wt) C57BL/6 mice are also reported.
as §1, §2
Voluntary wheel running was used as the exercise paradigm to avoid any physiological changes that may occur due to the stress of forced treadmill running. Mice were housed individually in cages equipped with a Trixie running wheel. Each wheel revolution was registered through a magnetic switch, which was connected to a counter. The number of revolutions was recorded daily for 6 days.

[3] = system: alpha-SG-null C57BL/6 mouse; test: Histology: number of inflammatory infiltrates in muscle sections; assay type: in vivo; details: alpha-SG-null mice, drugs daily in the diet, 30 days of treatment, n = 4
Description: FIG. 3: alpha-SG-null C57BL/6 mice were treated for 30 days with the indicated drugs, or combinations of drugs incorporated into the diet as described in the Methods. Tibialis anterior muscles were dissected and frozen in liquid nitrogen-cooled isopentane. The number of inflammatory infiltrates was measured on Azan-Mallory-stained serial muscle sections.
as §1, §2
(§3) Diaphragm and tibialis anterior of untreated and drug-treated mice were isolated and included in Killik® frozen section medium, quickly frozen and cut into 8-μm thick sections with the muscle fibres oriented transversely using a cryostat. Sections were stained with either Hematoxylin&Eosin or Azan Mallory, to evaluate the number of inflammatory infiltrates and necrotic fibres ([…] sections per tissue), respectively.

[4] = system: Satellite cells from alpha-SG-null C57BL/6 mice; test: Fusion index of differentiating satellite cells; assay type: cell-based, mouse; details: for Fusion index: n = 4; for Fusion index compared to control cells, in words: satellite cells, 48 and 72 h
Description: FIG. 6: Satellite cells from alpha-SG-null C57BL/6 mice were isolated from 3-5 days old mice and induced to differentiate in the presence of the indicated drugs as described in the methods. Fusion index was determined at 48 and 72 h as the number of nuclei in sarcomeric myosin-expressing cells with more than 2 nuclei vs the total number of nuclei.
In the in vitro experiments, the drugs were applied to satellite cells at the concentration of 100 μM for ISMN, 50 μM for ISDN, 10 μM for ibuprofen, 50 μM for aspirin and 30 μM for prednisolone. When combinations of drugs were used, the drugs were administered at the same time.
Satellite cells were isolated from 3-5 days old mice as described previously with some modifications. In particular, after 3 days from isolation, proliferating myoblasts were harvested, counted, and plated on tissue culture plastic dishes coated with 1 mg/ml type I collagen (SIGMA, C9791). […] Preparations showing less than 90% myogenic cells were discarded. […] Growth medium contained IMDM medium supplemented with 20% Fetal Bovine Serum, 3% Chick Embryo Extract, 100 U/ml Penicillin, 100 μg/ml Streptomycin, 50 μg/ml Gentamycin. Differentiation medium contained IMDM medium supplemented with 2% Horse Serum, 100 U/ml Penicillin, 100 μg/ml Streptomycin. Fusion index was determined as the number of nuclei in sarcomeric myosin-expressing cells with more than 2 nuclei vs the total number of nuclei.
Satellite cells isolated from newborn alpha-SG-null C57BL/6 mice and plated at low density (6×10^3 cells/cm^2) were maintained for 48 h in growth medium, and then switched to the differentiating medium in the presence or absence of ISMN, ISDN, aspirin, ibuprofen, ISMN plus aspirin or ISDN plus ibuprofen.

[5] = system: alpha-SG-null C57BL/6 mouse; test: In vivo experiments: histological, functional and biochemical alterations overall; details: alpha-SG-null mice, 30 days in the diet, vs control
Description: as §1, §2
The effects of the different drugs and their combination on the number of inflammatory infiltrates, the number of necrotic fibers per section, creatine kinase activity and free wheel distance ran are shown in Table I.

[6] = system: alpha-SG-null C57BL/6 mouse; test: Histology: number of necrotic fibres in muscle sections; assay type: in vivo; details: alpha-SG-null mice, drugs daily in the diet, 30 days of treatment, n = 4
Description: FIG. 4: alpha-SG-null C57BL/6 mice were treated for 30 days with the indicated drugs, or combinations of drugs incorporated into the diet as described in the Methods. Diaphragm muscles were dissected, frozen in liquid nitrogen-cooled isopentane and stained with hematoxilin & eosin according to standard procedures.
as §1, §2, §3

[7] = serum, alpha-SG-null mice, drugs daily in the diet, 30 days of treatment, n = 4
[8] = 48 hours of treatment in differentiating medium
[9] = 72 hours of treatment in differentiating medium

## CC(=O)Oc1ccccc1C(=O)O [Aspirin]
[1]; [7]
  CK level: 841 ± 33 U/l
[2]
  Free wheel test: 0.15 ± 0.02 km/24 h
[3]
  N° of inflammatory infiltrates/sections: 122.2 ± 17.1°
[4]; [8]
  Fusion index: 20 ± 1.9%
[4]; [9]
  Fusion index: 43 ± 1.7%
[5]
  Effect on the parameters measured (histological, functional and biochemical alterations), in words: did not have significant effects
[6]
  N° of necrotic fibres/section: 249.0 ± 32.1

## O=[N+]([O-])O[C@H]1CO[C@H]2[C@@H]1OC[C@H]2O[N+](=O)[O-] [ISDN, isosorbide dinitrate]
[4]
  Fusion index compared to control cells, in words: effective on their own
[5]
  Effect on the parameters measured (histological, functional and biochemical alterations), in words: did not have significant effects

## O=[N+]([O-])O[C@@H]1CO[C@H]2[C@@H]1OC[C@@H]2O [ISMN, isosorbide-mononitrate]
[1]; mouse, in vivo
  CK level: 787 ± 33 U/l
[2]
  Free wheel test: 0.18 ± 0.03 km/24 h
[3]
  N° of inflammatory infiltrates/sections: 190.2 ± 33.2
[4]; [8]
  Fusion index: 41 ± 2.2 %
[4]; [9]
  Fusion index: 76 ± 3.3 %
[4]
  Fusion index compared to control cells, in words: effective on their own
[5]
  Effect on the parameters measured (histological, functional and biochemical alterations), in words: did not have significant effects
[6]
  N° of necrotic fibres/section: 238.0 ± 27.2

## CC(C)Cc1ccc(C(C)C(=O)O)cc1 (stereo not drawn) [Ibuprofen]
[1]; [7]
  CK level: 851 ± 41 U/l
[2]
  Free wheel test: 0.12 ± 0.01 km/24 h
[3]
  N° of inflammatory infiltrates/sections: 116.1 ± 11.1°
[4]; [8]
  Fusion index: 21 ± 1.2%
[4]; [9]
  Fusion index: 42 ± 2.3%
[5]
  Effect on the parameters measured (histological, functional and biochemical alterations), in words: did not have significant effects
[6]
  N° of necrotic fibres/section: 269.0 ± 34.3

## C[C@]12C=CC(=O)C=C1CC[C@@H]1[C@@H]2[C@@H](O)C[C@@]2(C)[C@H]1CC[C@]2(O)C(=O)CO [Prednisolone]
[1]; [7]
  CK level: 757.6 ± 37.5 U/l
[2]
  Free wheel test: 0.38 ± 0.1 km/24 h
[3]
  N° of inflammatory infiltrates/sections: 103.4 ± 12.0
[4]; [8]
  Fusion index: 18 ± 0.9%
[4]; [9]
  Fusion index: 41 ± 2.0%
[6]
  N° of necrotic fibres/section: 217.3 ± 37.3
